Data reported in patent US20080188554A1, “METHODS OF TREATING AVIAN HYPERTENSION” (Regents of the University of California Office of …, priority 2006, published 2008).
Like-named read-outs stand apart in the source and are kept apart here. One block for each molecule: values may come before it.

Assays:
[1] = target: partially purified recombinant chicken sEH (Gallus gallus, UniProt Q45QT1); test: Inhibitor assay with fluorescent substrate PHOME; assay type: biochemical; details: PHOME 50 μM
Protocol: Dilutions of enzyme, inhibitors and substrate were made in BisTris-HCl buffer (25 mM, pH 7.0, 0.1 mg/ml BSA). The enzyme was incubated with 20 μL of inhibitor dilutions for 10 min prior to substrate addition. After this incubation, 50 μL of (3-phenyl-oxiranyl)-acetic acid cyano-(6-methoxy-naphthalen-2-yl)-methyl ester (PHOME) at a final concentration of 50 μM (1% final DMSO content per well) was added.
The inhibitor screen occurred in two steps. The first step was incubation with a final inhibitor concentration of 100 nM. Positive hits obtained in this primary screen were then incubated with inhibitors at final concentrations of 1, 10, and 100 nM.

Recombinant chicken sEH [2] = target: T1, Recombinant chicken sEH (Gallus gallus, UniProt Q45QT1); test: Non-radioactive epoxide hydrolase assay (HPLC-MS/MS), specific activity of substrates; assay type: biochemical; details: for Specific activity: compound as substrate, 50 μM, 30° C., 10 min
Protocol: The trans-9,10-epoxystearate was purchased (Sigma-Aldrich). A 5 mM solution of each substrate was made in ethanol for the EETs and methanol for the epoxystearate. The substrate solution (1 μL) was added to 100 μL of enzyme preparation in sodium phosphate buffer (0.1 M, pH 7.4) containing 0.1 mg/mL of BSA ([S]final=50 μM). The enzyme was incubated with the substrate at 30° C. for 10 min, and the reaction quenched by addition of 400 μL of methanol. The products were analyzed by HPLC-MS/MS as previously described (Newman, J. W. et al., J. Lipid Res. 43:1563-1578 (2002)) with the following exceptions. A 2.0×20 mm, 3-μm Luna C18 Mercury MS column (Phenomenex, Torrance, Calif.) was used with a 350 μL/min isocratic flow of […] (vol/vol/vol) acetonitrile/water/methanol with 0.1% glacial acetic acid for 2.5 min. Assays were performed in triplicate.

mouse sEH [3] = target: T2, mouse sEH (Mus musculus, UniProt P34914); details: compound as substrate, from Chacos 1983; cited from earlier work
T2 sequence (P34914 1-554): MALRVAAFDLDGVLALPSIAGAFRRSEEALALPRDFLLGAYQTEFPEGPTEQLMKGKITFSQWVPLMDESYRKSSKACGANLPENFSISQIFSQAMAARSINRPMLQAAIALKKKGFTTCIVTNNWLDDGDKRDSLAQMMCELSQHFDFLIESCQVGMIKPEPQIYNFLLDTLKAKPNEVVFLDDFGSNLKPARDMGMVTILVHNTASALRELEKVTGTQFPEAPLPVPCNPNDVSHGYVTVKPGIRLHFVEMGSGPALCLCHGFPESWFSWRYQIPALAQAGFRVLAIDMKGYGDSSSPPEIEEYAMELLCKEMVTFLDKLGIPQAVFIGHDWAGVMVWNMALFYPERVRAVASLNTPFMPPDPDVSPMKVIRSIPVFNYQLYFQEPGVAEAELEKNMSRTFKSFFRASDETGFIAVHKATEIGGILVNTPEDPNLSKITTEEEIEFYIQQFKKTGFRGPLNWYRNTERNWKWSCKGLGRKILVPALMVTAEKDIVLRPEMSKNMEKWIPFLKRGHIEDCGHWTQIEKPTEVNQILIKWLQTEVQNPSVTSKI

Recombinant chicken sEH [4] = target: T1, Recombinant chicken sEH; test: Radiotracer epoxide hydrolase activity and kinetic parameters using t-DPPO as substrate; assay type: biochemical
Protocol: (§1) Epoxide hydrolase activity was measured using racemic [^3H]-trans-1,3-diphenylpropene oxide (t-DPPO) as substrate (Borhan, B. et al., Anal. Biochem. 231:188-200 (1995)). t-DPPO was previously synthesized and purified Borhan, B. et al., Anal. Biochem. 231:188-200 (1995)). 1 μL of a 5 mM solution of [^3H]t-DPPO in DMF was added to 100 μL of enzyme preparation in sodium phosphate buffer (0.1 M, pH 7.4) containing 0.1 mg/mL of BSA ([S]final=50 μM). The enzyme was incubated at 30 °C for 10 min, and the reaction quenched by addition of 60 μL of methanol and 200 μL of isooctane, which extracts the remaining epoxide from the aqueous phase. Extractions with 1-hexanol were performed in parallel to assess the possible presence of glutathione transferase activity which could also transform the substrate (Borhan, B. et al., Anal. Biochem. 231:188-200 (1995)). The activity was followed by measuring the quantity of radioactive diol formed in the aqueous phase using a scintillation counter (Wallac Model 1409, Gaithersburg, Md.). Assays were performed in triplicate.
A solution of [^3H] t-DPPO (1 μL in DMF) was added to 100 μL of enzyme preparation in sodium phosphate buffer (0.1 M, pH 7.4) containing 0.1 mg/mL of BSA ([S]final=50 μM). The Km determination was performed by fitting the data to the Michaelis-Menten equation using the nonlinear regression algorithm in SigmaPlot (SPSS, Inc., Chicago, Ill.) with an R-squared value of at least 0.97. The standard deviation was generated by performing the experiment three separate times in triplicate.

mouse sEH [5] = target: T2, mouse sEH; details: t-DPPO as substrate, from Morisseau 2000; cited from earlier work
sEH = target: T3, sEH (Homo sapiens, UniProt P34913); details: t-DPPO as substrate, from Morisseau 2000; cited from earlier work
T3 sequence (P34913 1-555): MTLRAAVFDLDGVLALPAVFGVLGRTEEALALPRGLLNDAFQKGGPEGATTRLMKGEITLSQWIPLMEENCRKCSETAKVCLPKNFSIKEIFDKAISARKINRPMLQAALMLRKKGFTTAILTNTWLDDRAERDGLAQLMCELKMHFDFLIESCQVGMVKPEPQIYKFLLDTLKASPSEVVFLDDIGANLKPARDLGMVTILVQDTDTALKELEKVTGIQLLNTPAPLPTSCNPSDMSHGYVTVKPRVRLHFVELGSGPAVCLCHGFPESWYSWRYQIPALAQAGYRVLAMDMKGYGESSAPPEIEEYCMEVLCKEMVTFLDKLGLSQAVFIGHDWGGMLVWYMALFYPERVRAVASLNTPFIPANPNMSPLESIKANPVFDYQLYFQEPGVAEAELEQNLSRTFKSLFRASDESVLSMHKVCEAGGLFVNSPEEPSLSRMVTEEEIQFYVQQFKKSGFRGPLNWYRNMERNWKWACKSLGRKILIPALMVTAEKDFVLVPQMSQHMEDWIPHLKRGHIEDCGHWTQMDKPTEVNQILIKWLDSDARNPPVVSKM

[6] = test system: chicken sEH phosphatase activity; test: Phosphatase assay; assay type: biochemical; details: conditions developed for the mammalian enzyme phosphatase assay
Protocol: The phosphatase substrate, threo-9,10-phosphonooxy-hydroxy-octadecanoic acid was synthesized as previously described (Newman, J. W. et al., Proc. Natl. Acad. Sci. USA 100: 1558-1563 (2003)). The assay was performed and analyzed by HPLC-MS/MS as described (Newman, J. W. et al., Proc. Natl. Acad. Sci. USA 100:1558-1563 (2003)).

Recombinant chicken sEH [7] = target: T1, Recombinant chicken sEH; test: IC50 determination using [3H]-t-DPPO as substrate; assay type: biochemical
Protocol: The IC50 values reported herein were determined using racemic [^3H]-trans-1,3-diphenylpropene oxide (t-DPPO) as a substrate (Borhan, B. et al., Anal. Biochem. 231:188-200 (1995)). The inhibitors were synthesized as described (Morisseau, C. et al., Biochem. Pharmacol. 63:1599-1608 (2002)). Extracts of broiler hepatic cytosol or partially purified enzyme was diluted 50-fold in pH 7.4 0.1 M sodium phosphate buffer containing 0.1 mg/mL BSA, then incubated with the inhibitors for 5 min at 30° C. prior to substrate introduction. Prepared samples were incubated at 30° C. for 10 min and stopped as indicated above. Conditions used gave rates that were linear both with time and enzyme concentration. Assays were performed in triplicate. By definition, IC50 is the concentration of inhibitor that reduces enzyme activity by 50%. IC50 was determined by regression with a minimum of two points in the linear region of the curve on either side of the IC50 (for a total of 5 points). The curve was generated from at least three separate studies conducted in triplicate in order to obtain the standard deviation given in the results section.

[8] = substrate: c1ccc(CC2OC2c2ccccc2)cc1; test: Radiotracer epoxide hydrolase activity and kinetic parameters using t-DPPO as substrate; assay type: biochemical; details: other: t-DPPO as substrate; recombinant chicken sEH; pH 7.4; 30.0 °C
Protocol: as §1
A solution of [^3H] t-DPPO (1 μL in DMF) was added to 100 μL of enzyme preparation in sodium phosphate buffer (0.1 M, pH 7.4) containing 0.1 mg/mL of BSA ([S]final=50 μM). […]

[9] = partially purified recombinant chicken sEH, read-out: Chicken sEH IC50

IC50 [1, 9]: 5.2 ± 0.2 nM
Molecule: CCCCCOC(=O)C1CCC(NC(=O)NC23CC4CC(CC(C4)C2)C3)CC1 (stereo not drawn) [Compound 863]

Specific activity (Recombinant chicken sEH [2]): 11.6 ± 0.1 nmol/min/mg
Molecule: CCCCC/C=C\C/C=C\CC1OC1C/C=C\CCCC(=O)O (stereo not drawn) [8,9-EET]
Specific activity (mouse sEH [3]): 370.0 nmol/min/mg

IC50 [1, 9]: 2.4 ± 0.1 nM
Molecule: O=C(Nc1cccc(Br)c1)NC1CCC(OCc2c(F)cccc2F)CC1 (stereo not drawn) [Compound 1308]

IC50 [1, 9]: 3.5 ± 0.1 nM
Molecule: O=C(NCCCc1ccccc1)NC1CCC(Oc2ccc(F)cc2)CC1 (stereo not drawn) [Compound 1270]

kcat/Km ratio of chicken enzyme, fold lower than human enzyme (Recombinant chicken sEH [4]; compared to human sEH): 20 fold | kcat/Km ratio of chicken enzyme, fold lower than mouse enzyme (Recombinant chicken sEH [4]; compared to mouse sEH): 100 fold | Specific activity (Recombinant chicken sEH [4]; recombinant chicken sEH, mean ± SD of 3 experiments): 823.1 ± 27.3 nmol/min/mg
Molecule: c1ccc(CC2OC2c2ccccc2)cc1 (racemic) [t-DPPO, trans-1,3-diphenylpropene oxide]
Km (mouse sEH [5]): 4.3 µM | Specific activity (mouse sEH [5]): 17000 ± 300.0 nmol/min/mg | kcat (mouse sEH [5]): 18.0 ± 0.3 s⁻¹ | Km (sEH): 6.2 µM | Specific activity (sEH): 4500 ± 200.0 nmol/min/mg | kcat (sEH): 4.3 ± 0.3 s⁻¹

IC50 [1, 9]: 4.4 ± 0.1 nM
Molecule: O=C(Nc1cccc(C(F)(F)F)c1)NC1CCC(OCc2c(F)cccc2F)CC1 (stereo not drawn) [Compound 1285]

IC50 [1, 9]: 2.6 ± 0.1 nM
Molecule: O=C(NC1CCCCCC1)NC1CCC(Oc2ccc(F)cc2)CC1 (stereo not drawn) [Compound 1515]

IC50 [1, 9]: 1.9 ± 0.1 nM
Molecule: O=C(NCCCc1ccccc1)NC1CCC(OCc2c(F)cccc2F)CC1 (stereo not drawn) [Compound 1318]

IC50 [1, 9]: 5.3 ± 0.2 nM
Molecule: CC(C)=CCOC1CCC(NC(=O)NC23CC4CC(CC(C4)C2)C3)CC1 (stereo not drawn) [Compound 983]

IC50 [1, 9]: 2.7 ± 0.3 nM
Molecule: O=C(NC1CCCCCC1)NC1CCC(Oc2ccc(F)cc2)CC1 (stereo not drawn) [Compound 1271]

Activity relative to the activity measured with t-DPPO (Recombinant chicken sEH [2]): less than 1/30 | Specific activity (Recombinant chicken sEH [2]): 24.5 ± 2.1 nmol/min/mg
Molecule: CCCCCC1OC1C/C=C\C/C=C\C/C=C\CCCC(=O)O (stereo not drawn) [14,15-EET]
Specific activity (mouse sEH [3]): 1260.0 nmol/min/mg

IC50 [1, 9]: 5.7 ± 0.3 nM
Molecule: CCCCCOC(=O)C1CCCC(NC(=O)NC23CC4CC(CC(C4)C2)C3)C1 (stereo not drawn) [Compound 861]

IC50 [1, 9]: 3.5 ± 0.1 nM
Molecule: O=C(Nc1ccc(C(F)(F)F)cc1)NC1CCC(OCc2c(F)cccc2F)CC1 (stereo not drawn) [Compound 1289]

IC50 [1, 9]: 1.7 ± 0.1 nM
Molecule: C=CCOC1CCC(NC(=O)NC23CC4CC(CC(C4)C2)C3)CC1 (stereo not drawn) [Compound 982]

IC50 [1, 9]: 5.1 ± 0.3 nM
Molecule: O=C(NC1CCCCCCC1)NC1CCC(Oc2ccc(F)cc2)CC1 (stereo not drawn) [Compound 1272]

Molecule: O=C(O)CCCCCCCCCCCNC(=O)NC12CC3CC(CC(C3)C1)C2 [Compound 700]
IC50 ([1]; Chicken sEH IC50, partially purified recombinant chicken sEH): 12.6 ± 1.6 nM

Molecule: threo-9,10-phosphonooxy-hydroxy-octadecanoic acid
Hydrolysis of phosphatase substrate by chicken enzyme [6]: did not hydrolyze

Molecule: O=C(O)CCCCCCCCCCCNC(=O)NC12CC3CC(CC(C3)C1)C2 [AUDA, 12-(3-Adamantan-1-yl-ureido)dodecanoic acid]
IC50 (Recombinant chicken sEH [7]): 13.7 nM

IC50 [1, 9]: 2 ± 0.1 nM
Molecule: O=C(Nc1cccc(Cl)c1)NC1CCC(OCc2c(F)cccc2F)CC1 (stereo not drawn) [Compound 1302]

Specific activity (Recombinant chicken sEH [2]): 12.0 ± 1.2 nmol/min/mg
Molecule: CCCCC/C=C\CC1OC1C/C=C\C/C=C\CCCC(=O)O (stereo not drawn) [11,12-EET]
Specific activity (mouse sEH [3]): 640.0 nmol/min/mg

B1: Recombinant chicken sEH (Gallus gallus) (protein)
chain: MARRFALFDLGGVLFGPGLQHFLGSCERSYALPRNFLRDVLFAGGSDSPHAKVMRGQITLSQLFLEVDEGCRQHASTAGITLPTTFSIAHVFEEMAAKGTLNAPLLRAASMLRRNGFKTCVFTNNWVDDSMGRLFTSSLLTVVQRHFDLLIESCRVGLHKPDPRIYTYALEVLQAQPQEVIFLDDIGENLKPAREMGMATILVRDTDTVLKELQELSGVQLLQQEEPLPTTCDPATMSHGYVPIRPGVQLHFVEMGHGPAICLCHGFPESWLSWRYQIPALADAGFRVIALEMKGYGESTAPPEIEEYSQEQICKDLTIFLDKLGIPQAVFIGHDWGGAVVWNMALFYPERVRAVASLNTPYRPADPTVDIVETMKSFPMFDYQFYFQEPGVAEAELEKDIGRTLKALIRSTRPEDRLHSVPGLLGVQERGGLLVGFPEDIPESLILHGAELQYYIERFQRSGFRGPLNWYRNMRPNWRWALSAKDRKILMPALMVTAGKDVVLLPSMSKGMEEWIPQLRRGHLEACGHWTQMERPAALNRILVEWLEGLPPDGAMLRVSRL
Km [8]: 25.3 µM
